Laboratory results: US9861640B2, “Medicament for treatment of Alzheimer's disease” (KEMPHYS LTD., priority 2013, dated 2018)

Legend:
CD36 = test: Immunoblot of CD36 in rat primary microglia; type: cell-based; conditions: 5 μM each, 48 h; relative to vehicle-treated cells
Text: Primary microglia (type 1) were harvested from primary mixed glial cell cultures prepared from neonatal Wistar rat pups, as previously reported. Mouse microglial cell line MG5 and mouse glial cell line A1 were maintained as previously described. Mouse neuroblastoma cell line N1E-115 and Neuro 2a (American Type Culture Collection, Manassas, Va., USA) were maintained in Dulbecco's modified Eagle's medium (DMEM) supplemented with 10% fetal bovine serum (FBS), 20 U/ml penicillin (Invitrogen, Gaithersburg, Md., USA), and 20 μg/ml streptomycin (Invitrogen). Primary rat microglia were treated with Am80 (5 μM) and/or HX630 (5 μM) in the presence and absence of GW9662 (10 μM) for 48 h in Eagle's MEM supplemented with 10% FBS and 0.2% glucose. MG5 cells and A1 cells were treated with Am80 (5 μM) and/or HX630 (5 μM) for 48 h in DMEM containing 10% FBS. […]
Rat primary microglia and mouse microglial MG5 cells (5×10^6 cells per 100-mm dish) were homogenized in RIPA buffer [10 mM Hepes-NaOH (pH 7.4) containing 150 mM NaCl, 1 mM EDTA, 1% Triton X-100, 0.5% sodium deoxycholate, 0.1% SDS, 1 mM PMSF, 1 mg/ml leupeptin. […] Bound horseradish peroxidase-labeled antibodies were then detected via chemiluminescence (an ECL kit; Pierce, Rockford, Ill., USA). Protein concentrations were determined with the BCA Protein Assay Reagent (Pierce) and Bradford Protein Assay Reagent (Pierce).

IDE = test: Immunoblot of IDE in brains of APP23 mice; type: in vivo, mouse; conditions: day 18, vs vehicle-treated APP23 mice, P<0.05
Procedure: APP23 mice begin forming amyloid deposits when they are 6 months old, but memory deficits in the MWM test appear quite early (before 3 months of age). Here, we used 8.5-month-old male APP23 mice and their WT littermates (C57BL/6J). We used stratified random sampling to divide mice (four to six per cage) into four groups to equalize the mean body weight of the study groups: mice given 0.5 mg/kg/d Am80, those given 5 mg/kg/d HX630, those given the mixture of 0.5 mg/kg/d Am80 and 5 mg/kg/d HX630, and those given the vehicle. Am80 and HX630 were suspended in 0.5% (w/v) carboxymethylcellulose solution and were orally administered to mice at 0.5 mg/kg (Am80) or 5 mg/kg (HX630) for 17 consecutive days (once daily at 18:00). Control animals received the same volume of 0.5% (w/v) carboxymethylcellulose solution orally, without the other compounds. We set the 0.5 mg/kg/d dose for Am80 on the basis that this had been found effective in other in vivo studies, such as those by Kawahara et al. and Ishido and Shudo [37]. Higher doses of Am80 (3 mg/kg/d and 6 mg/kg/d) were also orally administered to mice for 17 consecutive days. Animals were weighed once a week. Mice were subjected to behavioral testing on days 15-18 of the first oral administration of the compounds (at 19:00-23:00). On days 15-17 (not day 18), animals received the compounds at 24:00, after behavioral testing. […]

CN1c2ccccc2N=C(c2ccc(C(=O)O)cc2)c2cc3c(cc21)C(C)(C)CCC3(C)C [HX630, 4-[5H-2,3-(2,5dimethyl-2,5-hexano)-5-methyldibenzo[b,e]-diazepin-11-yl]benzoic acid]
CD36 expression in rat primary microglia (CD36): 1.3 fold
IDE protein level in the membrane-bound fraction (IDE): increased significantly
